From ChEMBL document CHEMBL1777782, “Indole 5-carboxamide Thumb Pocket I inhibitors of HCV NS5B polymerase with nanomolar potency in cell-based subgenomic replicons (part 2): central amino acid linker and right-hand-side SAR studies” (Bioorg Med Chem Lett, 2011)
Values after ≈ are worked out from the molar mass of the structure shown.

How the values were obtained:
physchem = conditions: phosphate buffer, pH 7.2
[1] = Inhibition of HCV 1b NS5B RNA dependent RNA polymerase by scintillation proximity assay; set-up: species or system Hepacivirus hominis
[2] = Half life in human liver microsomes at 10 uM
Hepatitis C virus = experiment: Antiviral activity against Hepatitis C virus genotype 1b infected in human Huh-7 cells assessed as inhibition of viral replication after 72 hrs; assay type: functional, organism-based, Hepacivirus hominis; conditions: Huh-7, 72 h
[3] = Permeability across apical to basolateral side in human Caco2 cells; conditions: Caco-2
[4] = Selectivity ratio for polio virus RNA-dependent RNA polymerase to HCV 1b NS5B RNA dependent RNA polymerase
[5] = Selectivity ratio for mammalian DNA-dependent RNA polymerase II to HCV 1b NS5B RNA dependent RNA polymerase
[6] = Cmax in overnight-fasted Sprague-Dawley rat at 10, mg/kg, po administered by oral gavage; assay type: ADME, organism-based; conditions: in vivo
[7] = Half life in rat liver microsomes at 10 uM; assay type: ADME, Microsome

Row | Compound | solubility thermodynamic at 24 h (physchem) | IC50 [1] | half-life at 10 µM ([2]; liver microsomes) | EC50 (Hepatitis C virus) | Papp A→B [3] | Ratio [4] | Ratio [5] | Cmax [6] | half-life at 10 µM [7] | half-life at 10 µM ([2]; microsomes)
1 | Cn1c(-c2ccccn2)c(C2CCCCC2)c2ccc(C(=O)N[C@@]3(C(=O)Nc4ccc(/C=C/C(=O)O)cc4)CCNC3)cc21 | 10 µg/mL (≈ 16.9 µM) | 23 nM | > 300 min | 83 nM | 0.5 ×10⁻⁶ cm/s | > 150 | > 150 |  |  | 
2 | Cc1c(C(=O)O)sc2ccc(NC(=O)C3(NC(=O)c4ccc5c(C6CCCCC6)c(-c6ccccn6)n(C)c5c4)CCN(C)CC3)cc12 | 1 µg/mL (≈ 1.51 µM) | 27 nM | 185 min | 58 nM | 0.8 ×10⁻⁶ cm/s | > 150 | > 150 |  |  | 
3 | Cc1c(C(=O)O)sc2ccc(NC(=O)C3(NC(=O)c4ccc5c(C6CCCCC6)c(-c6ccccn6)n(C)c5c4)CCC3)cc12 | 112 µg/mL (≈ 180 µM) | 122 nM | 79 min | 68 nM | 0.6 ×10⁻⁶ cm/s | > 150 | > 150 |  |  | 
4 | Cn1c(-c2ccccn2)c(C2CCCCC2)c2ccc(C(=O)NC(C)(C)C(=O)Nc3ccc(-c4nc(C(=O)O)cs4)cc3)cc21 | 662 µg/mL (≈ 1060 µM) | 154 nM | 55 min | 420 nM | < 0.1 ×10⁻⁶ cm/s | > 150 | > 150 |  |  | 
5 | CN1CCCC(NC(=O)c2ccc3c(C4CCCCC4)c(-c4ccccn4)n(C)c3c2)(C(=O)Nc2ccc(/C=C/C(=O)O)cc2)C1 (racemic) |  | 43 nM |  | 66 nM |  | > 150 | > 150 |  |  | 
6 | Cn1c(-c2ccccn2)c(C2CCCCC2)c2ccc(C(=O)NC(C)(C)C(=O)Nc3ccc(-c4ccc(C(=O)O)o4)cc3)cc21 | > 564 µg/mL | 152 nM | 43 min | 145 nM | 0.2 ×10⁻⁶ cm/s | > 150 | > 150 |  |  | 
7 | Cn1c(-c2ccccn2)c(C2CCCCC2)c2ccc(C(=O)NC(C)(C)C(=O)Nc3ccc(-c4ccc(C(N)=O)o4)cc3)cc21 | < 0.1 µg/mL | 330 nM | 19 min | 96 nM |  | > 150 | > 150 |  |  | 
8 | Cc1c(C(N)=O)sc2ccc(NC(=O)C3(NC(=O)c4ccc5c(C6CCCCC6)c(-c6ccccn6)n(C)c5c4)CCC3)cc12 |  | 86 nM | 71 min | 76 nM |  | > 150 | > 150 |  |  | 
9 | CN1CCC(NC(=O)c2ccc3c(C4CCCCC4)c(-c4ccccn4)n(C)c3c2)(C(=O)Nc2ccc(/C=C/C(=O)O)cc2)CC1 | 22 µg/mL (≈ 35.5 µM) | 10 nM | 148 min | 60 nM | 0.6 ×10⁻⁶ cm/s | > 150 | > 150 | < 100 nM | 34 min | 
10 | CN1CCC(NC(=O)c2ccc3c(C4CCCCC4)c(-c4ccccn4)n(C)c3c2)(C(=O)Nc2ccc3sc(C(=O)O)cc3c2)CC1 |  | 17 nM |  | 220 nM |  | > 150 | > 150 |  |  | 
11 | Cn1c(-c2ccccn2)c(C2CCCCC2)c2ccc(C(=O)N[C@@]3(C(=O)Nc4ccc(-c5cncnc5)cc4)CCNC3)cc21 | 9 µg/mL (≈ 15 µM) | 64 nM | 64 min | 130 nM | < 0.1 ×10⁻⁶ cm/s | > 150 | > 150 |  |  | 
12 | Cc1c(C(=O)O)sc2ccc(NC(=O)[C@]3(NC(=O)c4ccc5c(C6CCCCC6)c(-c6ccccn6)n(C)c5c4)CCCNC3)cc12 |  | 35 nM |  | 60 nM |  |  |  |  |  | 93 min
13 | Cn1c(C(N)=O)cc2cc(NC(=O)C(C)(C)NC(=O)c3ccc4c(C5CCCCC5)c(-c5ccccn5)n(C)c4c3)ccc21 | < 0.1 µg/mL | 165 nM | 21 min | 97 nM |  | > 150 | > 150 |  |  | 
14 | Cn1c(-c2ccccn2)c(C2CCCCC2)c2ccc(C(=O)NC3(C(=O)Nc4ccc(C(=O)O)cc4)CCC3)cc21 | 336 µg/mL (≈ 610 µM) | 93 nM |  | 110 nM | 9.7 ×10⁻⁶ cm/s | > 150 | > 150 | 500 nM | 9 min | 21 min
15 | CC(C)(NC(=O)c1ccc2c(c1)nc(-c1ccoc1)n2C1CCCCC1)C(=O)Nc1ccc(/C=C/C(=O)O)cc1 |  | 40 nM |  |  |  |  |  |  |  | 
16 | Cn1c(-c2ccccn2)c(C2CCCCC2)c2ccc(C(=O)NC3(C(=O)Nc4ccc(-c5cnc(N)nc5)cc4)CCC3)cc21 | 0.9 µg/mL (≈ 1.5 µM) | 745 nM |  | 180 nM |  | > 150 | > 150 |  |  | 
17 | Cn1c(-c2ccccn2)c(C2CCCCC2)c2ccc(C(=O)NC3(C(=O)Nc4ccc(S(N)(=O)=O)cc4)CCC3)cc21 | < 0.1 µg/mL | 312 nM | 15 min | 350 nM |  | > 150 | > 150 |  |  | 

Row | Compound | solubility thermodynamic at 24 h (physchem) | IC50 [1] | half-life at 10 µM ([2]; liver microsomes) | EC50 (Hepatitis C virus) | Papp A→B [3] | Ratio [4] | Ratio [5] | Cmax [6] | half-life at 10 µM [7] | half-life at 10 µM ([2]; microsomes)
18 | Cn1c(-c2ccccn2)c(C2CCCCC2)c2ccc(C(=O)N[C@@]3(C(=O)Nc4ccc(/C=C/C(=O)O)cc4)CCCNC3)cc21 | 22 µg/mL (≈ 36.3 µM) | 11 nM | 84 min | 20 nM | 0.6 ×10⁻⁶ cm/s | > 150 | > 150 | < 100 nM | 17 min | 
19 | CC(=O)N1CCCC(NC(=O)c2ccc3c(C4CCCCC4)c(-c4ccccn4)n(C)c3c2)(C(=O)Nc2ccc(/C=C/C(=O)O)cc2)C1 (racemic) | 24 µg/mL (≈ 37 µM) | 230 nM | 256 min | 230 nM | 5.5 ×10⁻⁶ cm/s | > 150 | > 150 |  |  | 
20 | Cn1c(C(=O)O)cc2cc(NC(=O)[C@]3(NC(=O)c4ccc5c(C6CCCCC6)c(-c6ccccn6)n(C)c5c4)CCCNC3)ccc21 | 14 µg/mL (≈ 22.1 µM) | 44 nM | 28 min | 245 nM | < 0.1 ×10⁻⁶ cm/s | > 150 | > 150 |  |  | 
21 | CCN1CC[C@@](NC(=O)c2ccc3c(C4CCCCC4)c(-c4ccccn4)n(C)c3c2)(C(=O)Nc2ccc(/C=C/C(=O)O)cc2)C1 |  | 23 nM | 61 min | 50 nM | 5.6 ×10⁻⁶ cm/s | > 150 | > 150 |  |  | 
22 | CN1CC[C@](NC(=O)c2ccc3c(C4CCCCC4)c(-c4ccccn4)n(C)c3c2)(C(=O)Nc2ccc(/C=C/C(=O)O)cc2)C1 | 20 µg/mL (≈ 33 µM) | 66 nM |  | 78 nM | 7.8 ×10⁻⁶ cm/s | > 150 | > 150 |  |  | 46 min
23 | Cn1c(-c2ccccn2)c(C2CCCCC2)c2ccc(C(=O)NC(C)(C)C(=O)Nc3ccc(NC(=O)C(N)=O)cc3)cc21 | 1 µg/mL (≈ 1.72 µM) | 124 nM | 25 min | 139 nM | 12.9 ×10⁻⁶ cm/s | > 150 | > 150 |  |  | 
24 | Cn1c(-c2ccccn2)c(C2CCCCC2)c2ccc(C(=O)NC(C)(C)C(=O)Nc3ccc4sc(C(=O)O)cc4c3)cc21 | 468 µg/mL (≈ 787 µM) | 23 nM | 49 min | 88 nM | 0.4 ×10⁻⁶ cm/s | > 150 | > 150 |  |  | 
25 | Cn1c(-c2ccccn2)c(C2CCCCC2)c2ccc(C(=O)NC(C)(C)C(=O)Nc3ccc(-c4nc(C(N)=O)cs4)cc3)cc21 | < 0.1 µg/mL | 317 nM | 16 min | 150 nM |  | > 150 | > 150 |  |  | 
26 | Cn1c(-c2ccccn2)c(C2CCCCC2)c2ccc(C(=O)NC3(C(=O)Nc4ccc(/C=C/C(=O)O)cc4)CCCCC3)cc21 | 5 µg/mL (≈ 8.27 µM) | 194 nM | 61 min | 129 nM |  | > 150 | > 150 |  |  | 
27 | Cn1c(-c2ccccn2)c(C2CCCCC2)c2ccc(C(=O)N[C@]3(C(=O)Nc4ccc(/C=C/C(=O)O)cc4)CCNC3)cc21 | 19 µg/mL (≈ 32.1 µM) | 55 nM | 191 min | 194 nM | 0.1 ×10⁻⁶ cm/s | > 150 | > 150 |  |  | 
28 | Cn1c(-c2ccccn2)c(C2CCCCC2)c2ccc(C(=O)NC3(C(=O)Nc4ccc(/C=C/C(=O)O)cc4)CCNCC3)cc21 |  | 13 nM |  | 2000 nM |  | > 150 | > 150 |  |  | 
29 | Cn1c(-c2ccccn2)c(C2CCCCC2)c2ccc(C(=O)NC(C)(C)C(=O)Nc3ccc(NC(=O)C(=O)O)cc3)cc21 |  | 34 nM |  | 2500 nM |  | > 150 | > 150 |  |  | 
30 | Cn1c(-c2ccccn2)c(C2CCCCC2)c2ccc(C(=O)NC3(C(=O)Nc4ccc(/C=C/C(=O)O)cc4)CCOCC3)cc21 | 15 µg/mL (≈ 24.7 µM) | 68 nM | 41 min | 170 nM | 5.7 ×10⁻⁶ cm/s | > 150 | > 150 |  |  | 
31 | Cn1c(-c2ccccn2)c(C2CCCCC2)c2ccc(C(=O)N[C@]3(C(=O)Nc4ccc(/C=C/C(=O)O)cc4)CCCNC3)cc21 |  | 40 nM |  | 220 nM |  | > 150 | > 150 |  |  | 
32 | CC(=O)N1CC[C@@](NC(=O)c2ccc3c(C4CCCCC4)c(-c4ccccn4)n(C)c3c2)(C(=O)Nc2ccc(/C=C/C(=O)O)cc2)C1 |  | 24 nM |  | 212 nM |  | > 150 | > 150 |  |  | 
33 | Cn1c(C(=O)O)cc2cc(NC(=O)C(C)(C)NC(=O)c3ccc4c(C5CCCCC5)c(-c5ccccn5)n(C)c4c3)ccc21 | 945 µg/mL (≈ 1600 µM) | 75 nM | 36 min | 143 nM | 0.7 ×10⁻⁶ cm/s | > 150 | > 150 |  |  | 
34 | Cc1c(C(=O)O)sc2ccc(NC(=O)C(C)(C)NC(=O)c3ccc4c(C5CCCCC5)c(-c5ccccn5)n(C)c4c3)cc12 | 202 µg/mL (≈ 332 µM) | 35 nM | 34 min | 46 nM | 0.8 ×10⁻⁶ cm/s | > 150 | > 150 |  |  | 
